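Each compound was tested at five concentrations against cells in 96-well plates for 48 hours. GI50 marks 50% less growth.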 Activity calls are given as the source filed them. Rule as the data show it: active = GI50 up to about 1.1 µM and inactive = higher.
Columns and labels:
Assay in all cases: inhibition of tumour cell growth, NCI panel, 48 h
NCI-H23 = system: NCI-H23
UACC-62 = system: UACC-62
NCI-H460 = system: NCI-H460
SF-539 = system: SF-539
TK-10 = system: TK-10
T47D = system: T47D
UO-31 = system: UO-31
SR = system: SR
MOLT-4 = system: MOLT-4
A549 = system: A549
Hs-578T = system: Hs-578T
CCRF-CEM = system: CCRF-CEM
KM12 = system: KM12
U-251 = system: U-251
SK-MEL-28 = system: SK-MEL-28
SK-MEL-2 = system: SK-MEL-2
Malme-3M = system: Malme-3M
M14 = system: M14
HOP-62 = system: HOP-62
786-0 = system: 786-0
PC-3 = system: PC-3
SF-268 = system: SF-268
MDA-MB-435 = system: MDA-MB-435
HL-60 = system: HL-60
HT-29 = system: HT-29
RXF 393 = system: RXF 393
SF-295 = system: SF-295
HCT-116 = system: HCT-116
UACC-257 = system: UACC-257
MDA-N = system: MDA-N
EKVX = system: EKVX
OVCAR-5 = system: OVCAR-5
CAKI-1 = system: CAKI-1
SN12C = system: SN12C
MDA-MB-231 = system: MDA-MB-231
RPMI-8226 = system: RPMI-8226
NCI/ADR-RES = system: NCI/ADR-RES
OVCAR-8 = system: OVCAR-8
A498 = system: A498
SK-OV-3 = system: SK-OV-3
ACHN = system: ACHN
OVCAR-3 = system: OVCAR-3
HOP-92 = system: HOP-92
HCT-15 = system: HCT-15
IGROV-1 = system: IGROV-1
SK-MEL-5 = system: SK-MEL-5
SW-620 = system: SW-620
NCI-H522 = system: NCI-H522
SNB-19 = system: SNB-19
LOX IMVI = system: LOX IMVI
DU-145 = system: DU-145
NCI-H226 = system: NCI-H226
COLO 205 = system: COLO 205
BT-549 = system: BT-549
K562 = system: K562
OVCAR-4 = system: OVCAR-4

O=C(c1ccccc1)c1ccc2c(c1)NC(=O)c1ccccc1SSc1ccccc1C(=O)N2
GI50 (NCI-H23): > 100 µM (inactive)
GI50 (UACC-62): > 100 µM (inactive)
GI50 (NCI-H460): > 100 µM (inactive)
GI50 (SF-539): > 100 µM (inactive)
GI50 (TK-10): > 100 µM (inactive)
GI50 (T47D): > 100 µM (inactive)
GI50 (UO-31): > 100 µM (inactive)
GI50 (SR): 85.5 µM (inactive)
GI50 (MOLT-4): > 100 µM (inactive)
GI50 (A549): > 100 µM (inactive)
GI50 (Hs-578T): > 100 µM (inactive)
GI50 (CCRF-CEM): > 100 µM (inactive)
GI50 (KM12): > 100 µM (inactive)
GI50 (U-251): > 100 µM (inactive)
GI50 (SK-MEL-28): > 100 µM (inactive)
GI50 (SK-MEL-2): > 100 µM (inactive)
GI50 (Malme-3M): > 100 µM (inactive)
GI50 (M14): > 100 µM (inactive)
GI50 (HOP-62): > 100 µM (inactive)
GI50 (786-0): > 100 µM (inactive)
GI50 (PC-3): > 100 µM (inactive)
GI50 (SF-268): > 100 µM (inactive)
GI50 (MDA-MB-435): > 100 µM (inactive)
GI50 (HL-60): > 100 µM (inactive)
GI50 (HT-29): > 100 µM (inactive)
GI50 (RXF 393): > 100 µM (inactive)
GI50 (SF-295): > 100 µM (inactive)
GI50 (HCT-116): > 100 µM (inactive)
GI50 (UACC-257): > 100 µM (inactive)
GI50 (MDA-N): > 100 µM (inactive)
GI50 (EKVX): > 100 µM (inactive)
GI50 (OVCAR-5): > 100 µM (inactive)
GI50 (CAKI-1): > 100 µM (inactive)
GI50 (SN12C): > 100 µM (inactive)
GI50 (MDA-MB-231): > 100 µM (inactive)
GI50 (RPMI-8226): > 100 µM (inactive)
GI50 (NCI/ADR-RES): > 100 µM (inactive)
GI50 (OVCAR-8): > 100 µM (inactive)
GI50 (A498): > 100 µM (inactive)
GI50 (SK-OV-3): > 100 µM (inactive)
GI50 (ACHN): > 100 µM (inactive)
GI50 (OVCAR-3): > 100 µM (inactive)
GI50 (HOP-92): > 100 µM (inactive)
GI50 (HCT-15): > 100 µM
GI50 (IGROV-1): > 100 µM (inactive)
GI50 (SK-MEL-5): > 100 µM (inactive)
GI50 (SW-620): > 100 µM (inactive)
GI50 (NCI-H522): > 100 µM (inactive)
GI50 (SNB-19): > 100 µM (inactive)
GI50 (LOX IMVI): > 100 µM (inactive)
GI50 (DU-145): > 100 µM (inactive)
GI50 (NCI-H226): > 100 µM (inactive)
GI50 (COLO 205): > 100 µM (inactive)
GI50 (BT-549): > 100 µM (inactive)
GI50 (K562): > 100 µM (inactive)
GI50 (OVCAR-4): > 100 µM (inactive)

O=C1O[B-](c2ccccc2)(c2ccccc2)[NH+]2CCCC12 (configuration not stated)
GI50 (NCI-H23): 74 µM (inactive)
GI50 (UACC-62): > 100 µM (inactive)
GI50 (NCI-H460): > 100 µM (inactive)
GI50 (SF-539): 55.6 µM (inactive)
GI50 (TK-10): 44.4 µM (inactive)
GI50 (T47D): 76.9 µM (inactive)
GI50 (UO-31): 34.6 µM (inactive)
GI50 (SR): > 100 µM (inactive)
GI50 (MOLT-4): > 100 µM (inactive)
GI50 (A549): > 100 µM (inactive)
GI50 (Hs-578T): 56.6 µM (inactive)
GI50 (CCRF-CEM): > 100 µM (inactive)
GI50 (KM12): > 100 µM (inactive)
GI50 (U-251): > 100 µM (inactive)
GI50 (SK-MEL-28): 99.5 µM (inactive)
GI50 (SK-MEL-2): 97.7 µM (inactive)
GI50 (Malme-3M): 51.1 µM (inactive)
GI50 (M14): 40.5 µM (inactive)
GI50 (HOP-62): > 100 µM (inactive)
GI50 (786-0): 50.7 µM (inactive)
GI50 (PC-3): 35 µM (inactive)
GI50 (SF-268): > 100 µM (inactive)
GI50 (MDA-MB-435): > 100 µM (inactive)
GI50 (HL-60): > 100 µM (inactive)
GI50 (HT-29): > 100 µM (inactive)
GI50 (RXF 393): 43.5 µM (inactive)
GI50 (SF-295): > 100 µM (inactive)
GI50 (HCT-116): 47 µM (inactive)
GI50 (UACC-257): 64.9 µM (inactive)
GI50 (MDA-N): 85.1 µM (inactive)
GI50 (EKVX): > 100 µM (inactive)
GI50 (OVCAR-5): > 100 µM (inactive)
GI50 (CAKI-1): 47.4 µM (inactive)
GI50 (SN12C): > 100 µM (inactive)
GI50 (MDA-MB-231): > 100 µM (inactive)
GI50 (RPMI-8226): 72.8 µM (inactive)
GI50 (NCI/ADR-RES): 84.7 µM (inactive)
GI50 (OVCAR-8): 74 µM (inactive)
GI50 (A498): 55.7 µM (inactive)
GI50 (SK-OV-3): > 100 µM (inactive)
GI50 (ACHN): 75.7 µM (inactive)
GI50 (OVCAR-3): 38.7 µM (inactive)
GI50 (HOP-92): 16.7 µM (inactive)
GI50 (HCT-15): 59.3 µM
GI50 (IGROV-1): > 100 µM (inactive)
GI50 (SK-MEL-5): 33 µM (inactive)
GI50 (SW-620): 63.4 µM (inactive)
GI50 (NCI-H522): 64.7 µM (inactive)
GI50 (SNB-19): > 100 µM (inactive)
GI50 (LOX IMVI): > 100 µM (inactive)
GI50 (DU-145): > 100 µM (inactive)
GI50 (NCI-H226): 49 µM (inactive)
GI50 (COLO 205): 31.6 µM (inactive)
GI50 (BT-549): 41.8 µM (inactive)
GI50 (K562): 67.6 µM (inactive)
GI50 (OVCAR-4): > 100 µM (inactive)

Source: ChEMBL document CHEMBL1201862, “PubChem BioAssay data set” (2004)
